Numbers after ± are expanded uncertainties.
Assay: isobaric coefficient of expansion
Conditions: 338.15 K; 5000 kPa; Liquid; DSC

SMILES	isobaric coefficient of expansion
O=[N+]([O-])c1ccccc1 [nitrobenzene]	0.000843 ± 2.1e-05 1/K
CC[N+](=O)[O-] [nitroethane]	0.00122 ± 3e-05 1/K
C[N+](=O)[O-] [nitromethane]	0.00134 ± 3.3e-05 1/K
CCC#N [propanenitrile]	0.00144 ± 3.5e-05 1/K

Same assay, conditions: 338.15 K; 10000 kPa; Liquid; DSC

SMILES	isobaric coefficient of expansion
CCC[N+](=O)[O-] [1-nitropropane]	0.00113 ± 2.8e-05 1/K
N#Cc1ccccc1 [benzonitrile]	0.000843 ± 2.1e-05 1/K
O=[N+]([O-])c1ccccc1 [nitrobenzene]	0.000828 ± 2e-05 1/K
CC[N+](=O)[O-] [nitroethane]	0.00119 ± 2.9e-05 1/K
C[N+](=O)[O-] [nitromethane]	0.00128 ± 3.1e-05 1/K
CCC#N [propanenitrile]	0.00136 ± 3.3e-05 1/K

Same assay, conditions: 338.15 K; 15000 kPa; Liquid; DSC

SMILES	isobaric coefficient of expansion
CCC[N+](=O)[O-] [1-nitropropane]	0.00109 ± 2.7e-05 1/K
N#Cc1ccccc1 [benzonitrile]	0.000826 ± 2e-05 1/K
O=[N+]([O-])c1ccccc1 [nitrobenzene]	0.000806 ± 2e-05 1/K
CC[N+](=O)[O-] [nitroethane]	0.00114 ± 2.8e-05 1/K
C[N+](=O)[O-] [nitromethane]	0.00124 ± 3e-05 1/K
CCC#N [propanenitrile]	0.0013 ± 3.2e-05 1/K

Same assay, conditions: 338.15 K; 20000 kPa; Liquid; DSC

SMILES	isobaric coefficient of expansion
CCC[N+](=O)[O-] [1-nitropropane]	0.00105 ± 2.6e-05 1/K
N#Cc1ccccc1 [benzonitrile]	0.000813 ± 2e-05 1/K
O=[N+]([O-])c1ccccc1 [nitrobenzene]	0.00079 ± 1.9e-05 1/K
CC[N+](=O)[O-] [nitroethane]	0.00111 ± 2.7e-05 1/K
C[N+](=O)[O-] [nitromethane]	0.0012 ± 3e-05 1/K
CCC#N [propanenitrile]	0.00125 ± 3.1e-05 1/K

Same assay, conditions: 338.15 K; 25000 kPa; Liquid; DSC

SMILES	isobaric coefficient of expansion
CCC[N+](=O)[O-] [1-nitropropane]	0.00102 ± 2.5e-05 1/K
N#Cc1ccccc1 [benzonitrile]	0.000799 ± 2e-05 1/K
O=[N+]([O-])c1ccccc1 [nitrobenzene]	0.000775 ± 1.9e-05 1/K
CC[N+](=O)[O-] [nitroethane]	0.00108 ± 2.7e-05 1/K
C[N+](=O)[O-] [nitromethane]	0.00117 ± 2.9e-05 1/K
CCC#N [propanenitrile]	0.0012 ± 2.9e-05 1/K

Same assay, conditions: 338.15 K; 30000 kPa; Liquid; DSC

SMILES	isobaric coefficient of expansion
CCC[N+](=O)[O-] [1-nitropropane]	0.000988 ± 2.4e-05 1/K
N#Cc1ccccc1 [benzonitrile]	0.000786 ± 1.9e-05 1/K
O=[N+]([O-])c1ccccc1 [nitrobenzene]	0.000762 ± 1.9e-05 1/K
CC[N+](=O)[O-] [nitroethane]	0.00106 ± 2.6e-05 1/K
C[N+](=O)[O-] [nitromethane]	0.00113 ± 2.8e-05 1/K
CCC#N [propanenitrile]	0.00115 ± 2.8e-05 1/K

Same assay, conditions: 338.15 K; 35000 kPa; Liquid; DSC

SMILES	isobaric coefficient of expansion
CCC[N+](=O)[O-] [1-nitropropane]	0.000964 ± 2.4e-05 1/K
N#Cc1ccccc1 [benzonitrile]	0.000776 ± 1.9e-05 1/K
O=[N+]([O-])c1ccccc1 [nitrobenzene]	0.000751 ± 1.8e-05 1/K
CC[N+](=O)[O-] [nitroethane]	0.00103 ± 2.5e-05 1/K
C[N+](=O)[O-] [nitromethane]	0.00111 ± 2.7e-05 1/K
CCC#N [propanenitrile]	0.00112 ± 2.7e-05 1/K

Same assay, conditions: 338.15 K; 40000 kPa; Liquid; DSC

SMILES	isobaric coefficient of expansion
CCC[N+](=O)[O-] [1-nitropropane]	0.00093 ± 2.3e-05 1/K
N#Cc1ccccc1 [benzonitrile]	0.000762 ± 1.9e-05 1/K
O=[N+]([O-])c1ccccc1 [nitrobenzene]	0.000736 ± 1.8e-05 1/K
CC[N+](=O)[O-] [nitroethane]	0.00101 ± 2.5e-05 1/K
C[N+](=O)[O-] [nitromethane]	0.00107 ± 2.6e-05 1/K
CCC#N [propanenitrile]	0.00107 ± 2.6e-05 1/K

Same assay, conditions: 338.15 K; 45000 kPa; Liquid; DSC

SMILES	isobaric coefficient of expansion
CCC[N+](=O)[O-] [1-nitropropane]	0.000914 ± 2.2e-05 1/K
N#Cc1ccccc1 [benzonitrile]	0.000747 ± 1.8e-05 1/K
O=[N+]([O-])c1ccccc1 [nitrobenzene]	0.000725 ± 1.8e-05 1/K
CC[N+](=O)[O-] [nitroethane]	0.000982 ± 2.4e-05 1/K
C[N+](=O)[O-] [nitromethane]	0.00105 ± 2.6e-05 1/K
CCC#N [propanenitrile]	0.00105 ± 2.6e-05 1/K

Same assay, conditions: 338.15 K; 50000 kPa; Liquid; DSC

SMILES	isobaric coefficient of expansion
CCC[N+](=O)[O-] [1-nitropropane]	0.000894 ± 2.2e-05 1/K
N#Cc1ccccc1 [benzonitrile]	0.000738 ± 1.8e-05 1/K
O=[N+]([O-])c1ccccc1 [nitrobenzene]	0.000715 ± 1.8e-05 1/K
CC[N+](=O)[O-] [nitroethane]	0.000964 ± 2.4e-05 1/K
C[N+](=O)[O-] [nitromethane]	0.00103 ± 2.5e-05 1/K
CCC#N [propanenitrile]	0.00102 ± 2.5e-05 1/K

Same assay, conditions: 338.15 K; 55000 kPa; Liquid; DSC

SMILES	isobaric coefficient of expansion
CCC[N+](=O)[O-] [1-nitropropane]	0.000883 ± 2.2e-05 1/K
O=[N+]([O-])c1ccccc1 [nitrobenzene]	0.000708 ± 1.7e-05 1/K
CC[N+](=O)[O-] [nitroethane]	0.000945 ± 2.3e-05 1/K
C[N+](=O)[O-] [nitromethane]	0.00102 ± 2.5e-05 1/K
CCC#N [propanenitrile]	0.00101 ± 2.5e-05 1/K

Same assay, conditions: 348.15 K; 5000 kPa; Liquid; DSC

SMILES	isobaric coefficient of expansion
CCC[N+](=O)[O-] [1-nitropropane]	0.00122 ± 3e-05 1/K

From the NIST ThermoML archive (doi:10.1021/je900672g)
